# Experimental data taken from patent publication US10828316B2, “Method of treating bacterial infections” (priority 2016, dated 2020).
# Read-outs that look alike come from different tables or passages of the source.
# Assays:
# [1] = test system: E. coli strain no 5; assay: MIC; type: cell-based; details: Escherichia coli, NO5, read-out: MIC of AZT
# [2] = test system: A. baumannii strain no 3; assay: MIC; type: cell-based, Acinetobacter baumannii; details: for MIC of AZT: A. baumannii strain no 3
# [3] = test system: P. aeruginosa strain no 10; assay: MIC; type: cell-based, Pseudomonas aeruginosa; details: for MIC of AZT: P. aeruginosa strain no 10
# [4] = test system: K. pneumoniae EN011; assay: MIC; type: cell-based, Klebsiella pneumoniae; details: Klebsiella pneumoniae, EN011, K. pneumoniae EN011
# [5] = test system: E. coli EN013; assay: MIC; type: cell-based, Escherichia coli; details: Escherichia coli, EN013, E. coli EN013
# [6] = test system: P. aeruginosa EN0004; assay: MIC; type: cell-based
# [7] = test system: A. baumannii EN0007; assay: MIC; type: cell-based, A. baumanii
# [8] = test system: E. coli strain no 2; assay: MIC; details: Escherichia coli
# [9] = test system: S. aureus strain no 13; assay: MIC; details: Staphylococcus aureus, NO13, read-out: MIC of AZT
# [10] = test system: E. coli
# [11] = test system: E. coli ATCC 25922; assay: MIC, in vitro sensitivity of the strain used in vivo; details: Escherichia coli, ATCC25922, read-out: MIC against E. coli ATCC 25922
# [12] = test system: S. typhimurium EN0466; assay: MIC; type: cell-based, Salmonella typhimurium; details: in FdUrd+trimethoprim+uridine combination
# [13] = test system: K. oxytoca EN0392; assay: MIC; type: cell-based, Klebsiella oxytoca; details: in FdUrd+trimethoprim+uridine combination
# [14] = test system: E. coli EN001; assay: MIC; type: cell-based, Escherichia coli
# [15] = test system: E. coli EN002; assay: MIC; type: cell-based, Escherichia coli; details: Combination 1 (AZT+trimethoprim+uridine)
# [16] = test system: P. aeruginosa EN015; assay: MIC; type: cell-based, Pseudomonas aeruginosa; details: Pseudomonas aeruginosa, EN015, P. aeruginosa EN015
# [17] = test system: E. coli EN0001; assay: MIC; type: cell-based; details: in AZT+trimethoprim+uridine combination
# [18] = test system: E. coli EN0135; assay: MIC; type: cell-based; details: in AZT+trimethoprim+uridine combination
# [19] = test system: E. coli EN0136; assay: MIC; type: cell-based; details: in AZT+trimethoprim+uridine combination
# [20] = test system: E. coli EN0138; assay: MIC; type: cell-based; details: in AZT+trimethoprim+uridine combination
# [21] = test system: K. pneumoniae EN0142; assay: MIC; type: cell-based; details: in AZT+trimethoprim+uridine combination
# [22] = test system: K. pneumoniae EN0143; assay: MIC; type: cell-based
# [23] = test system: K. pneumoniae EN0401; assay: MIC; type: cell-based
# [24] = test system: K. pneumoniae EN0436; assay: MIC; type: cell-based; details: in AZT+trimethoprim+uridine combination
# [25] = test system: K. pneumoniae EN0437; assay: MIC; type: cell-based
# [26] = test system: S. flexneri APV00906; assay: MIC; type: cell-based; details: S. flexneri APV00906; in FdUrd+trimethoprim+uridine combination
# [27] = test system: S. flexneri APV00907; assay: MIC; type: cell-based; details: S. flexneri APV00907
# [28] = test system: S. sonnei APV00908; assay: MIC; type: cell-based; details: S. sonnei APV00908
# [29] = test system: Helicobacter pylori APV00918; assay: MIC; type: cell-based; details: in FdUrd+trimethoprim+uridine combination
# Source text: (§1) Inhibition of Heliobacter is important in view of increasing resistance and its association to gastric cancer.
# [30] = test system: Helicobacter pylori ATTC43504; assay: MIC; type: cell-based; details: in AZT+trimethoprim+uridine combination
# Source text: as §1
# [31] = in vivo; cited from earlier work
# [32] = Combination 1 (AZT+trimethoprim+uridine)
# [33] = Combination 2 (same mixed with thymidine)
# [34] = in AZT+trimethoprim+uridine combination
# [35] = in FdUrd+trimethoprim+uridine combination
# [36] = in didanosine+trimethoprim+uridine combination
structure (smiles),measurement,setting,value
"Cc1cn([C@H]2C[C@H](N=[N+]=[N-])[C@@H](CO)O2)c(=O)[nH]c1=O [AZT, 3′-azido-3′-deoxythymidine]",MIC,[1],4 to 8 µg/mL
same,MIC of AZT,[2]; uridine 10 μg/ml,>150 µg/mL
same,MIC of AZT,[2]; uridine 50 μg/ml,>150 µg/mL
same,MIC of AZT,[2]; uridine 100 μg/ml,>150 µg/mL
same,MIC of AZT,[2]; uridine 200 μg/ml,>150 µg/mL
same,MIC,"[2]; Acinetobacter baumannii, NO3, read-out: MIC of AZT",> 150 µg/mL
same,MIC of AZT,[3]; uridine 10 μg/ml,>150 µg/mL
same,MIC of AZT,[3]; uridine 50 μg/ml,>150 µg/mL
same,MIC of AZT,[3]; uridine 100 μg/ml,>150 µg/mL
same,MIC of AZT,[3]; uridine 200 μg/ml,>150 µg/mL
same,MIC,"[3]; Pseudomonas aeruginosa, NO10, read-out: MIC of AZT",> 150 µg/mL
same,MIC,[4]; [32],0.032 µg/mL
same,MIC,[5]; [32],< 0.008 µg/mL
same,MIC,[5]; [33],< 0.008 µg/mL
same,MIC,[5]; [34],< 0.008 µg/mL
same,MIC,[6]; [34],>4 µg/mL
same,MIC,[7]; [34],>4 µg/mL
same,MIC,"[8]; NO2, E. coli strain 2, 5 uM thymidine, uridine 0 μg/ml",> 30 µg/mL
same,MIC,"[8]; NO2, E. coli strain 2, 5 uM thymidine, uridine 10 μg/ml",25 to 30 µg/mL
same,MIC,"[8]; NO2, E. coli strain 2, 5 uM thymidine, uridine 100 μg/ml",10 to 20 µg/mL
same,MIC,"[8]; NO2, read-out: MIC AZT, E. coli strain 2, thymidine 0 μM, uridine 0",20 to 30 µg/mL
same,MIC,"[8]; NO2, read-out: MIC AZT, E. coli strain 2, thymidine 0 μM, uridine 100 μg/ml",5 to 10 µg/mL
same,MIC,"[8]; NO2, read-out: MIC AZT, E. coli strain 2, thymidine 10 μM, uridine 0",> 30 µg/mL
same,MIC,"[8]; NO2, read-out: MIC AZT, E. coli strain 2, thymidine 10 μM, uridine 100 μg/ml",> 30 µg/mL
same,MIC,"[8]; NO2, read-out: MIC AZT, E. coli strain 2, thymidine 10 μM, uridine 100 and trimethoprim 1 μg/ml",0.1 to 0.5 µg/mL
same,MIC,"[8]; NO2, read-out: MIC AZT, E. coli strain 2, thymidine 30 μM, uridine 0",> 30 µg/mL
same,MIC,"[8]; NO2, read-out: MIC AZT, E. coli strain 2, thymidine 30 μM, uridine 100 μg/ml",> 30 µg/mL
same,MIC,"[8]; NO2, read-out: MIC of AZT, E. coli strain no 2, trimethoprim 0.5 μg/ml, uridine 0 μg/ml",0.012 to 0.025 µg/mL
same,MIC,"[8]; NO2, read-out: MIC of AZT, E. coli strain no 2, trimethoprim 0.5 μg/ml, uridine 1 μg/ml",≤ 0.006 µg/mL
same,MIC,"[8]; NO2, read-out: MIC of AZT, E. coli strain no 2, trimethoprim 0.5 μg/ml, uridine 10 μg/ml",0.05 to 0.1 µg/mL
same,MIC,"[8]; NO2, read-out: MIC of AZT, E. coli strain no 2, trimethoprim 0.5 μg/ml, uridine 100 μg/ml",0.025 to 0.05 µg/mL
same,MIC,"[8]; NO2, read-out: MIC of AZT, E. coli strain no 2, trimethoprim 0.5 μg/ml, uridine 200 μg/ml",0.012 to 0.025 µg/mL
same,MIC,"[8]; NO2, read-out: MIC of AZT, E. coli strain no 2, trimethoprim 1 μg/ml, uridine 0 μg/ml",0.012 to 0.025 µg/mL
same,MIC,"[8]; NO2, read-out: MIC of AZT, E. coli strain no 2, trimethoprim 1 μg/ml, uridine 1 μg/ml",≤ 0.006 µg/mL
same,MIC,"[8]; NO2, read-out: MIC of AZT, E. coli strain no 2, trimethoprim 1 μg/ml, uridine 10 μg/ml",≤ 0.006 µg/mL
same,MIC,"[8]; NO2, read-out: MIC of AZT, E. coli strain no 2, trimethoprim 1 μg/ml, uridine 100 μg/ml",0.025 to 0.05 µg/mL
same,MIC,"[8]; NO2, read-out: MIC of AZT, E. coli strain no 2, trimethoprim 1 μg/ml, uridine 200 μg/ml",0.012 to 0.025 µg/mL
same,MIC,"[8]; NO2, read-out: MIC of AZT, E. coli strain no 2, trimethoprim 2 μg/ml, uridine 0 μg/ml",0.006 to 0.012 µg/mL
same,MIC,"[8]; NO2, read-out: MIC of AZT, E. coli strain no 2, trimethoprim 2 μg/ml, uridine 1 μg/ml",≤ 0.006 µg/mL
same,MIC,"[8]; NO2, read-out: MIC of AZT, E. coli strain no 2, trimethoprim 2 μg/ml, uridine 10 μg/ml",≤ 0.006 µg/mL
same,MIC,"[8]; NO2, read-out: MIC of AZT, E. coli strain no 2, trimethoprim 2 μg/ml, uridine 100 μg/ml",0.012 to 0.025 µg/mL
same,MIC,"[8]; NO2, read-out: MIC of AZT, E. coli strain no 2, trimethoprim 2 μg/ml, uridine 200 μg/ml",0.006 to 0.012 µg/mL
same,MIC,"[8]; NO2, read-out: MIC of AZT, E. coli strain no 2, uridine 0 μg/ml",20 to 25 µg/mL
same,MIC,"[8]; NO2, read-out: MIC of AZT, E. coli strain no 2, uridine 10 μg/ml",20 to 25 µg/mL
same,MIC,"[8]; NO2, read-out: MIC of AZT, E. coli strain no 2, uridine 50 μg/ml",15 to 20 µg/mL
same,MIC,"[8]; NO2, read-out: MIC of AZT, E. coli strain no 2, uridine 100 μg/ml",5 to 15 µg/mL
same,MIC,"[8]; NO2, read-out: MIC of AZT, E. coli strain no 2, uridine 200 μg/ml",5 to 15 µg/mL
same,MIC,"[8]; NO2, read-out: MIC of AZT, Table 3, E. coli strain no 2, trimethoprim 0, uridine 0 μg/ml",20 to 25 µg/mL
same,MIC,"[8]; NO2, read-out: MIC of AZT, Table 3, E. coli strain no 2, trimethoprim 0, uridine 1 μg/ml",10 to 20 µg/mL
same,MIC,"[8]; NO2, read-out: MIC of AZT, Table 3, E. coli strain no 2, trimethoprim 0, uridine 10 μg/ml",10 to 20 µg/mL
same,MIC,"[8]; NO2, read-out: MIC of AZT, Table 3, E. coli strain no 2, trimethoprim 0, uridine 100 μg/ml",2 to 10 µg/mL
same,MIC,"[8]; NO2, read-out: MIC of AZT, Table 3, E. coli strain no 2, trimethoprim 0, uridine 200 μg/ml",2 to 10 µg/mL
same,MIC,[9],> 150 µg/mL
same,log diff peritoneum vs start of treatment,[10]; AZT 30 mg/kg,0.38
same,mean log peritoneum,[10]; AZT 30 mg/kg,5.68
same,score at sampling,"[10]; AZT 30 mg/kg, single mice",1
same,inhibition in mice infected with E. coli,[10]; murine peritonitis model,slight inhibition
same,MIC,[11],> 2 µg/mL
"O=c1ccn([C@@H]2O[C@H](CO)[C@@H](O)[C@H]2O)c(=O)[nH]1 [Uridine, uridine]",MIC,[12],13 µg/mL
same,MIC,[13],13 µg/mL
same,MIC,[14]; [35],13 µg/mL
same,MIC,[14]; [36],13 µg/mL
same,MIC,[15],1.6 µg/mL
same,MIC,[4]; [32],3.2 µg/mL
same,MIC,[4]; [34],30 µg/mL
same,MIC,[4]; [35],6 µg/mL
same,MIC,[4]; [36],13 µg/mL
same,MIC,[5]; [32],< 0.8 µg/mL
same,MIC,[5]; [33],< 0.8 µg/mL
same,MIC,[5]; [34],< 2 µg/mL
same,MIC,[5]; [35],1.6 µg/mL
same,MIC,[5]; [36],1.6 µg/mL
same,MIC,[16]; [32],200 µg/mL
same,MIC,[16]; [33],200 µg/mL
same,MIC,[16]; [34],500 µg/mL
same,MIC,[17],13 µg/mL
same,MIC,[18],13 µg/mL
same,MIC,[19],13 µg/mL
same,MIC,[20],1.6 µg/mL
same,MIC,[21],13 µg/mL
same,MIC,[22]; [35],>400 µg/mL
same,MIC,[22]; [36],>400 µg/mL
same,MIC,[23]; [35],>400 µg/mL
same,MIC,[23]; [36],>400 µg/mL
same,MIC,[24],13 µg/mL
same,MIC,[25]; [35],>400 µg/mL
same,MIC,[25]; [36],>400 µg/mL
same,MIC,[6]; [34],>400 µg/mL
same,MIC,[6]; [35],>400 µg/mL
same,MIC,[6]; [36],>400 µg/mL
same,MIC,[7]; [34],>400 µg/mL
same,MIC,[7]; [35],>400 µg/mL
same,MIC,[7]; [36],>400 µg/mL
same,MIC,[26],>400 µg/mL
same,MIC,[27]; [34],200 µg/mL
same,MIC,[27]; [35],>400 µg/mL
same,MIC,[28]; [34],3 µg/mL
same,MIC,[28]; [35],>400 µg/mL
same,MIC,[29],6 µg/mL
same,MIC,[30],13 µg/mL
same,oral bioavailability,[31],7-8%
